Here are results for two compounds from patent publication US20240351977A1, “Compositions and Methods For Reducing Immune Intolerance and Treating Autoimmune Disorders” (Lapix Therapeutics, Inc., priority 2021, published 2024).

For series [1], the system named is FoxP3^+/TIM3^+ CD4 T-cells. Description: In vitro dose-response analysis in murine T-cells (splenocytes, flow cytometry). It is filed as cell-based, C57BL/6 mice. Particulars: for change in FoxP3+/TIM3+ CD4 T-cells with dose: 48 μM to 1.5 μM; for pEC50 / EC90: Mus musculus, T-cell, increase in percent FoxP3+/TIM3+ CD4 T-cells, 30:70 drug:DMPC liposomes, 4-parameter model, Emax fixed to 7.9%; for pEC50: read-out: EC50 mean (SE); for EC90: read-out: EC90 mean (SE). As for the experimental part:
Compound 1 and Compound 2 were each formulated with dimyristoylphosphatidylcholine (DMPC) at a 30:70 drug to lipid molar ratio. Liposomes were synthesized according to Example 2 in PBS.
Splenocytes from naïve C57BL/6 mice were stained with CFSE, prepared, cultured, and dosed. Cells were seeded at 2×10^5 cells/well. Cells were dosed with each compound from 48 μM to 1.5 μM at a log 2 dilution scheme. Cells were incubated for 72 hours before phenotyping for FoxP3^+/TIM3^+ CD4 T-cells. Flow cytometer analysis was performed to assess changes in percent FoxP3^+/TIM3^+ CD4 T-cells as a function of treatment and dose. Concentration versus response was fitted to a four- or five-parameter log-logistic model (using the “drc” package in “R”). The EC50 and EC90 values were obtained by model fitting.
On the technique in general: A flow cytometer gives signals particle by particle.

For series [2], the system named is FoxP3^+/CD4^+ T-cells. The series can be described thus: Splenocyte flow cytometry at end of EAE study. It is filed as in vivo, mice. As for the experimental part:
At the end of the study, spleens were collected from a representative sample of mice from each group for splenocyte analysis. A single-cell suspension was prepared for cellular phenotyping by flow cytometry. Cells were stained and gated for CD4^+T-cells. Percent FoxP3^+/CD4^+ T-cells were evaluated by flow cytometry.

Series [3] relates to FoxP3^+/CD4^+ T-cells. The series can be described thus: Pharmacodynamic effects of a single PO dose in mice (splenocyte phenotyping). It is filed as in vivo. The following applies: for percentage of FoxP3+/CD4+ T-cells, mean value: single oral gavage, 10:90 Compound 2:DMPC. As for the experimental part: Compound 2 was dissolved in DMSO and formulated with 1,2-dimyristoyl-sn-glycero-3-phosphocholine (DMPC) at a molar ratio of 10:90 Compound 2:DMPC, as described in Example 2. Animals were dosed according to Table 7.
To evaluate the PD effects of a single dose of Compound 2 in mice, the animals were administered a single oral gavage as per their group assignment (Table 7). Five days after the oral dose, the animals were sacrificed and their spleens were collected for T-cell phenotyping. The study included an ex vivo analysis followed by a dose-response analysis (FIG. 4A). The spleens collected for splenocyte analysis were prepared into a single-cell suspension for cellular phenotyping by flow cytometry (eBioscience, Inc., San Diego, CA). Cells were stained and gated for CD4. Percent FoxP3^+/CD4^+ T-cells were evaluated using flow cytometry. A dose versus response curve was fitted to a four- or five-parameter log-logistic model (using the “drc” package in “R”). The EC50 and EC90 values were obtained by model fitting.

Series [4] relates to MOG35-55-Induced Murine EAE Model. The series can be described thus: MOG35-55-induced murine EAE model, prophylactic and therapeutic treatment. It is filed as in vivo, mice. As for the experimental part:
Compound 2 was formulated with 1,2-distearoyl-sn-glycero-3-phosphocholine (DSPC) at a molar ratio of 3.75:96.25 Compound 2:DSPC. Two test articles were formulated and tested. The first formulation was made with Compound 2:DSPC with MOG35-55, referred to as Compound 2/MOG35-55. Another formulation was made without […], and is referred to as Compound 2. […] The ratio of Compound 2 to DSPC was chosen based on in vitro dose-response studies. Liposomes were prepared as described in Example 2, in PBS and extruded through a […] filter. Animals were dose with 100 μl of 42 μM Compound 2 or 100 μl of 42 μM/1 μg Compound 2/MOG35-55 per mouse PO QD. This dose was selected based on in vitro dose-response analysis.
In the active EAE model, mice are immunized with MOG35-55 peptide emulsified in Complete Freund's Adjuvant (CFA) by subcutaneous injection at the tail base (0.1 mL of emulsion/mouse) under anesthesia. On the day of injection (Day 0) and 2 days later, mice receive an intraperitoneal injection of Pertussis Toxin (PT) in PBS at 600 ng/mouse/dose (0.1 mL).
Symptoms typically develop in mice 9-14 days after immunization (Day 0). Daily observation and scoring of mice start on Day 9 and continue until the end of the study. Table 10 details the expected clinical symptoms and the scoring criteria used in this study.
Mice were dosed with 100 μl of 42 μM Compound 2 or 100 μl of 42 μM of Compound 2 co-formulated with 1 μg of MOG35-55 (Compound 2/MOG35-55) orally QD for the duration of the study.
To evaluate the therapeutic effects of Compound 2, treatment was initiated after the first clinical symptoms were observed. […] The treatment arm received 100 μl of 42 μM Compound 2 PO QD for the remainder of the study. Mice in all groups were monitored and scored daily for clinical symptoms. Once a mouse reached a score of five as per Table 11 or was found dead in the cage it was marked as an event in the survival analysis.

The mark [5] stands for this setting: mouse treated after the onset of symptoms.
[6] abbreviates: four-parameter dose-response model, percent FoxP3+/CD4+ T-cells, single oral dose.
The mark [7] stands for this setting: four-parameter dose-response model, single oral dose, 100 μl/mouse.

Broadly, the pEC50 is −log10 of the EC50, conventionally taken in molar units. The term EC90 denotes the concentration at which the effect reaches the 90% level.

pEC50: −log10 of the molar value.

As for `CCCCCCCCCCCCCCCCOC(=O)NC[C@H](N)C(=O)O` [Compound 1, (S)-2-amino-3-(((hexadecyloxy)carbonyl)amino) propanoic acid], in series [1] (10 μM), the “increase in FoxP3+/TIM3+ CD4 T-cells over low dose” value is on record as 126%. Moreover, the “change in FoxP3+/TIM3+ CD4 T-cells with dose” value in series [1] is reported as “dose-dependent increase”. Also, in series [1] (48 μM, 72 hours), the “cell appearance via microscope at end of incubation” value was “did not look healthy”. In addition, in series [1] (72 hours), the negative-log EC50 (pEC50) was 4.87 and the EC90 turned out to be 15 µM. In series [1] (high dose, 72 hours), the “FoxP3+/TIM3+ double positive CD4 T-cells, mean value” turned out to be 8.26%. For the same compound, the “FoxP3+/TIM3+ double positive CD4 T-cells, mean value” in series [1] (low dose, 72 hours) is reported as 3.65%.

Turning to `CCCCCCCCCCCCCCCCCC(=O)NC[C@H](N)C(=O)O` [Compound 2, (S)-2-amino-3-stearamidopropanoic acid], in series [2] (setting [5]), the “increase of Foxp3+/CD4+ T-cells over the surviving mouse in the untreated group” value is given as 715% and the “percent Foxp3+/CD4+ T-cell” value was 26.1%. Further, the “increase of Foxp3+/CD4+ T-cells over control” value in series [2] (prophylactic group) is reported as 225%. The “percent of Foxp3+/CD4+ T-cells” value in series [2] (prophylactic group, end of study, control 3.20%) was 10.4%. Also, in series [3] (setting [6]), the “E0 (model estimated), Mean” value is reported as 3.3 and the Emax (model estimated), Mean is 12.1%. In series [3] (setting [7]), this compound gave an ED50 of 43.1 µM and an ED90 of 281.0 µM. Also, the “percentage of FoxP3+/CD4+ T-cells, mean value” in series [3] (high dose group, 5 days) worked out at 11.53%. The “percentage of FoxP3+/CD4+ T-cells, mean value” in series [3] (low dose group, 5 days) came to 3.87%. In addition, in series [3] (single oral dose, 5 days), the “increase of FoxP3+/CD4+ T-cells (T-regs), high dose group compared to low dose group” value was 219%. Further, in series [4] (prophylactic), the “mean clinical score by end of the study” value worked out at 2.1. For the same compound, in series [4] (prophylactic, 100 μl of 42 μM PO QD from four days after immunization, control day 9), the “disease onset, day after immunization” value is 12 days. Moreover, the “mean clinical score at peak symptoms” value in series [4] (prophylactic, day 17, control 4.77) worked out at 2.6. Besides, the “day by which all animals showed symptoms” value in series [4] (prophylactic, control 11) is 13 days. Moreover, the “delay in disease progression after disease onset” value in series [4] (therapeutic, 100 μl of 42 μM PO QD from clinical score of 1) is reported as “one-day”. In series [4] (therapeutic, by the end of the study), the “mean clinical score lower than in the untreated arm” value was 54%. The “mean clinical score at peak symptoms” value in series [4] (therapeutic, day 6 after the onset of symptoms, control 4.77 on day 7) was 2.8. In series [4] (therapeutic, day 10 after the onset of symptoms), the “mean clinical score after the peak” value is recorded as 2.33. Also, the “animals that spontaneously died or were euthanized (survival analysis)” value in series [4] (untreated group eight out of nine) is “zero out of nine”. Further, in series [1] (30 μM), the “increase in FoxP3+/TIM3+ CD4 T-cells over low dose” value amounted to 129%. In series [1] (30 µM dose), the toxicity in vitro entry was “less toxicity in vitro compared to Compound 1”. Also, the “change in FoxP3+/TIM3+ CD4 T-cells with dose” value in series [1] is listed as “dose-dependent increase”. Also, in series [1] (72 hours), the pEC50 is 4.84 and the EC90 is 17.8 µM. Also, the “FoxP3+/TIM3+ double positive CD4 T-cells, mean value” in series [1] (high dose, 72 hours) amounted to 7.36%. Further, the “FoxP3+/TIM3+ double positive CD4 T-cells, mean value” in series [1] (low dose, 72 hours) was determined as 3.21%. Further, the “maximum efficacious dose in vitro” value in series [1] (preliminary data) was determined as 42 µM.
